Molecular target: Factor D (Homo sapiens (Human), UniProt P00746)
Assay: biochemical
Assay type: biochemical
Details: read-out: IC50

Sequence of Factor D (P00746 26-253): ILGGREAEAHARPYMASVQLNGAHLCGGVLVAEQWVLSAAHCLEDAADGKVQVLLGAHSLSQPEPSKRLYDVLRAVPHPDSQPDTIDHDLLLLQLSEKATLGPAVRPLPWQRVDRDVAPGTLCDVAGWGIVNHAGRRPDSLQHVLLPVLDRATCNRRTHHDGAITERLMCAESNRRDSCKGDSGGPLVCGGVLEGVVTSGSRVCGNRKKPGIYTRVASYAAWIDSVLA

Compound	IC50
C[C@@]1(F)C[C@@H](C(=O)NCc2cccc(Cl)c2F)N(C(=O)Nc2cn(C(N)=O)c3ccc(OCC(=O)O)cc23)C1 [Example 375, (1-Carbamoyl-3-{[(2S,4R)-2-(3-chloro-2-fluoro-benzylcarbamoyl)-4-fluoro-4-methyl-pyrrolidine-1-carbonyl]-amino}-1H-indol-5-yloxy)-acetic acid]	2 nM
CNC(=O)c1cc(Cl)c(F)c(CNC(=O)[C@@H]2C[C@@H](F)CN2C(=O)Nc2cn(C(N)=O)c3ccccc23)c1 [Example 240, (2S,4R)-4-Fluoro-pyrrolidine-1,2-dicarboxylic acid 1-[(1-carbamoyl-1H-indol-3-yl)-amide] 2-(3-chloro-2-fluoro-5-methylcarbamoyl-benzylamide)]	141 nM
Cc1cccnc1-c1cccc(NC(=O)[C@@H]2C[C@H]3C[C@H]3N2C(=O)Cn2nc(C(N)=O)c3ccncc32)c1F [Example 687, 1-(2-{(1R,3S,5R)-3-[2-Fluoro-3-(3-methyl-pyridin-2-yl)-phenylcarbamoyl]-2-aza-bicyclo[3.1.0]hex-2-yl}-2-oxo-ethyl)-1H-pyrazolo[3,4-c] pyridine-3-carboxylic acid amide]	98 nM
NC(=O)n1cc(NC(=O)N2N=CC[C@H]2C(=O)NCc2cccc(Cl)c2F)c2ccccc21 (single isomer, unassigned) [Example 362, S^§)-4,5-Dihydro-pyrazole-1,5-dicarboxylic acid 1-[(1-carbamoyl-1H-indol-3-yl)-amide]5-(3-chloro-2-fluoro-benzylamide]	5 nM
O=C(Nc1cccc(OC(F)(F)F)c1)[C@@H]1CCCN1C(=O)Nc1cn(C(=O)CO)c2ccccc12 [Example 366, (S)-Pyrrolidine-1,2-dicarboxylic acid 1-{[1-(2-hydroxy-acetyl)-1H-indol-3-yl]-amide}2-[(3-trifluoromethoxy-phenyl)-amide]]	3250 nM
CO[C@H]1[C@@H](C(=O)NCc2cccc(Cl)c2F)N(C(=O)Cn2cc(C(C)=O)c3ccncc32)C[C@@H]1F [Example 681, (2S,3S,4S)-1-[2-(3-Acetyl-pyrrolo[2,3-c]pyridin-1-yl)-acetyl]-4-fluoro-3-methoxy-pyrrolidine-2-carboxylic acid 3-chloro-2-fluoro-benzylamide]	19 nM
(2S,4R)-4-Fluoro-pyrrolidine-1,2-dicarboxylic acid 1-[(3-carbamoyl-indolizin-1-yl)-amide]2-[(3-trifluoromethoxy-phenyl)-amide] [Example 122]	150 nM
COc1ccc2c(c1)c(C(N)=O)cn2CC(=O)N1C[C@H](F)C[C@H]1C(=O)NCc1cccc(Cl)c1F [Example 497, 1-{2-[(2S,4R)-2-(3-Chloro-2-fluoro-benzylcarbamoyl)-4-fluoro-pyrrolidin-1-yl]-2-oxo-ethyl}-5-methoxy-1H-indole-3-carboxylic acid amide]	128 nM
Cc1cc2c(C(N)=O)nn(CC(=O)N3[C@@H]4C[C@@H]4C[C@H]3C(=O)N[C@H](C)c3cccc(Cl)c3F)c2c(C)n1 [Example 696, 1-(2-{(1R,3S,5R)-3-[(R)-1-(3-Chloro-2-fluoro-phenyl)-ethylcarbamoyl]-2-aza-bicyclo[3.1.0]hex-2-yl}-2-oxo-ethyl)-5,7-dimethyl-1H-pyrazolo[3,4-c]pyridine-3-carboxylic acid amide]	101 nM
NC(=O)n1cc(NC(=O)N2C[C@@H](N)C[C@H]2C(=O)NCCc2cccc(Cl)c2)c2ccccc21 [Example 86, (2S,4S)-4-Amino-pyrrolidine-1,2-dicarboxylic acid 1-[(1-carbamoyl-1H-indol-3-yl)-amide] 2-{[2-(3-chloro-phenyl)-ethyl]-amide}]	14300 nM
NC(=O)c1nn(CC(=O)N2[C@@H]3C[C@@H]3C[C@H]2C(=O)Nc2cccc(Cl)c2F)c2ccccc12 [Example 731, 1-{2-[(1R,3S,5R)-3-(3-Chloro-2-fluoro-phenylcarbamoyl)-2-aza-bicyclo[3.1.0]hex-2-yl]-2-oxo-ethyl}-1H-indazole-3-carboxylic acid amide]	53 nM
NC(=O)n1cc(NC(=O)N2C[C@H](F)C[C@H]2CNS(=O)(=O)c2cccc(Cl)c2F)c2ccccc21 [Example 110, 3-({(2S,4R)-2-[(3-Chloro-2-fluoro-benzenesulfonylamino)-methyl]-4-fluoro-pyrrolidine-1-carbonyl}-amino)-indole-1-carboxylic acid amide]	20 nM
NC(=O)c1cc(Br)cc(NC(=O)[C@@H]2C[C@@H](F)CN2C(=O)Nc2cn(C(N)=O)c3ccccc23)c1 [Example 437, (2S,4R)-4-Fluoro-pyrrolidine-1,2-dicarboxylic acid 2-[(3-bromo-5-carbamoyl-phenyl)-amide]1-[(1-carbamoyl-1H-indol-3-yl)-amide]]	107 nM
C=CCOc1ccc2c(NC(=O)N3C[C@H](F)C[C@H]3C(=O)NCc3cccc(Cl)c3F)cn(C(N)=O)c2c1 [Example 280, (2S,4R)-4-Fluoro-pyrrolidine-1,2-dicarboxylic acid 1-[(6-allyloxy-1-carbamoyl-1H-indol-3-yl)-amide] 2-(3-chloro-2-fluoro-benzylamide)]	250 nM
NC(=O)c1cn(CC(=O)N2[C@@H]3C[C@@H]3C[C@H]2C(=O)NCc2cccc(Cl)c2F)c2ccccc12 [Example 475, 1-{2-[(1R,3S,5R)-3-(3-Chloro-2-fluoro-benzylcarbamoyl)-2-aza-bicyclo[3.1.0]hex-2-yl]-2-oxo-ethyl}-1H-indole-3-carboxylic acid amide]	350 nM
CO[C@H]1[C@@H](C(=O)NCc2cccc(Cl)c2F)N(C(=O)Cn2nc(C(C)=O)c3cnccc32)C[C@@H]1F [Example 630, (2S,3S,4S)-1-[2-(3-Acetyl-pyrazolo[4,3-c]pyridin-1-yl)-acetyl]-4-fluoro-3-methoxy-pyrrolidine-2-carboxylic acid 3-chloro-2-fluoro-benzylamide]	36 nM
Cc1nccc2c(C(N)=O)nn(CC(=O)N3[C@@H]4C[C@@H]4C[C@H]3C(=O)Nc3cccc(OC(F)(F)F)c3F)c12 [Example 716, 1-{2-[(1R,3S,5R)-3-(2-Fluoro-3-trifluoromethoxy-phenylcarbamoyl)-2-aza-bicyclo[3.1.0]hex-2-yl]-2-oxo-ethyl}-7-methyl-1H-pyrazolo[3,4-c]pyridine-3-carboxylic acid amide]	46 nM
CC(C)(C)OC(=O)COc1ccc2c(c1)c(NC(=O)N1[C@@H]3C[C@@H]3C[C@H]1C(=O)NCc1ccccc1F)cn2C(N)=O [Example 390, (1-Carbamoyl-3-{[(1R,3S,5R)-3-(2-fluoro-benzylcarbamoyl)-2-aza-bicyclo[3.1.0]hexane-2-carbonyl]-amino}-1H-indol-5-yloxy)-acetic acid tert-butyl ester]	38 nM
NC(=O)c1nn(CC(=O)N2[C@@H]3C[C@@H]3C[C@H]2C(=O)Nc2cccc(-c3c(F)cccc3Cl)c2)c2cnccc12 [Example 722, 1-(2-((1R,3S,5R)-3-(2′-Chloro-6′-fluorobiphenyl-3-ylcarbamoyl)-2-azabicyclo[3.1.0]hexan-2-yl)-2-oxoethyl)-1H-pyrazolo[3,4-c] pyridine-3-carboxamide]	20 nM
NC(=O)n1cc(NC(=O)N2C[C@@H](N)C[C@H]2C(=O)NCc2cccc(C(F)(F)F)c2)c2ccccc21 [Example 31, (2S,4S)-4-Amino-pyrrolidine-1,2-dicarboxylic acid 1-[(1-carbamoyl-1H-indol-3-yl)-amide] 2-(3-trifluoromethyl-benzylamide)]	12200 nM
NC(=O)n1cc(NC(=O)N2C[C@H](F)C[C@H]2C(=O)Nc2cccc(OC(F)(F)F)c2F)c2ccccc21 [Example 274, (2S,4R)-4-Fluoro-pyrrolidine-1,2-dicarboxylic acid 1-[(1-carbamoyl-1H-indol-3-yl)-amide] 2-[(2-fluoro-3-trifluoromethoxy-phenyl)-amide]]	14 nM
NC(=O)n1cc(NC(=O)N2C[C@@H](N)C[C@H]2C(=O)NCC(O)c2ccccc2)c2ccccc21 (stereo partly drawn) [Example 82, (2S,4S)-4-Amino-pyrrolidine-1,2-dicarboxylic acid 1-[(1-carbamoyl-1H-indol-3-yl)-amide] 2-[(2-hydroxy-2-phenyl-ethyl)-amide]]	24800 nM
Cc1cc2c(C(N)=O)nn(CC(=O)N3[C@@H]4C[C@@H]4C[C@H]3C(=O)NCc3cccc(Cl)c3F)c2cn1 [Example 651, 1-{2-[(1R,3S,5R)-3-(3-Chloro-2-fluoro-benzylcarbamoyl)-2-aza-bicyclo[3.1.0]hex-2-yl]-2-oxo-ethyl}-5-methyl-1H-pyrazolo[3,4-c]pyridine-3-carboxylic acid amide]	21 nM
CC(=O)c1cn(CC(=O)N2[C@@H]3C[C@@H]3C[C@H]2C(=O)NCc2cc(C#N)cc(Cl)c2F)c2ccccc12 [Example 527, (1R,3S,5R)-2-[2-(3-Acetyl-indol-1-yl)-acetyl]-2-aza-bicyclo[3.1.0]hexane-3-carboxylic acid 3-chloro-5-cyano-2-fluoro-benzylamide]	483 nM
CC(=O)c1nn(CC(=O)N2[C@@H]3C[C@@H]3C[C@H]2C(=O)Nc2cccc(OC(F)(F)F)c2F)c2ccc(OCC3CCCO3)cc12 (stereo partly drawn) [Example 772, (1R,3S,5R)-2-{2-[3-Acetyl-5-(tetrahydro-furan-2-ylmethoxy)-indazol-1-yl]-acetyl}-2-aza-bicyclo[3.1.0]hexane-3-carboxylic acid (2-fluoro-3-trifluoromethoxy-phenyl)-amide]	7 nM
CN(C)CCN(C)c1cc(Cl)c(F)c(CNC(=O)[C@@H]2C[C@@H](F)CN2C(=O)Nc2cn(C(N)=O)c3ccccc23)c1 [Example 329, (2S,4R)-4-Fluoro-pyrrolidine-1,2-dicarboxylic acid 1-[(1-carbamoyl-1H-indol-3-yl)-amide] 2-{3-chloro-5-[(2-dimethylamino-ethyl)-methyl-amino]-2-fluoro-benzylamide}]	181 nM
NC(=O)n1cc(NC(=O)N2C[C@](F)(CO)C[C@H]2C(=O)NCc2cccc(Cl)c2F)c2ccccc21 [Example 356, 2S,4S)-4-Fluoro-4-hydroxymethyl-pyrrolidine-1,2-dicarboxylic acid 1-[(1-carbamoyl-1H-indol-3-yl)-amide]2-(3-chloro-2-fluoro-benzylamide]	480 nM
Cc1ncc(NC(=O)[C@@H]2C[C@@H](F)CN2C(=O)Nc2cn(C(N)=O)c3ccccc23)cc1Br [Example 165, (2S,4R)-4-Fluoro-pyrrolidine-1,2-dicarboxylic acid 1-[(1-carbamoyl-1H-indol-3-yl)-amide] 2-[(5-bromo-4-methyl-pyridin-3-yl)-amide]]	140 nM
